The record followed here is patent US8569264B2, “Antibacterial 4,5-substituted aminoglycoside analogs having multiple substituents” (ISIS Pharmaceuticals, Inc., priority 2005, dated 2013).

Experiment [1] deals with 16S ribosomal subunit RNA target. Put plainly: Mass spectrometry based binding assay (FTICR), 16S. As for the experimental part:
In a typical experiment, 10 μL of an aqueous solution containing 100 mM ammonium acetate buffer, […], and 33% isopropyl alcohol (to aid ion desolvation) was prepared with different concentrations of each ligand or ligand mixture Samples were introduced into the electrospray ionization source (negative ionization mode) at 1 μL/min and ions were stored for 1 sec in an RF-only hexapole following desolvation. The abundances were integrated from the respective ions for free RNA and the ligand-RNA complex. The primary (1:1 RNA:ligand) and secondary (1:2 complex, if observed). […] The peak ratios were measured at each concentration, then a plot of complex/free RNA versus concentration of ligand added was fitted to a second (or higher) order binding polynomial to determine the KD.

A further experiment has as its system E. Coli. The experiment is described as follows: MIC, E. Coli. The experiment is classed as cell-based. As to the method:
(§1) The MIC assays are carried out in 150 μL volume in duplicate in 96-well clear flat-bottom plates. The bacterial suspension from an overnight culture growth in appropriate medium is added to a solution of test compound in 4% DMSO in water. Final bacterial inoculum is approximately 10^5-10^6 CFU/well. […] Both ampicillin and tetracycline are used as antibiotic-positive controls in each screening assay for S. pyogenes, E. coli imp-, E. coli, S. aureus, E. faecalis, K. pneumoniae and P. vulgaris. Ciprofloxacin is used as an antibiotic positive control in each screening assay for P. aeruginosa.

Another experiment has as its system S. Aureus. Put plainly: MIC, S. Aureus. The experiment is classed as cell-based. As for the experimental part: as §1
The target in experiment [2] is 18S ribosomal subunit RNA target. The experiment is described as follows: Mass spectrometry based binding assay (FTICR), 18S. As to the method: In a typical experiment, 10 μL of an aqueous solution containing 100 mM ammonium acetate buffer, 2.5 or 5 μM of each RNA, and 33% isopropyl alcohol (to aid ion desolvation) was prepared with different concentrations of each ligand or ligand mixture Samples were introduced into the electrospray ionization source (negative ionization mode) at 1 μL/min and ions were stored for 1 sec in an RF-only hexapole following desolvation. The abundances were integrated from the respective ions for free RNA and the ligand-RNA complex. The primary (1:1 RNA:ligand) and secondary (1:2 complex, if observed). […] The peak ratios were measured at each concentration, then a plot of complex/free RNA versus concentration of ligand added was fitted to a second (or higher) order binding polynomial to determine the KD.

The subject of experiment [3] is E. coli S30 bacterial extract (pBestLuc firefly luciferase reporter). Put plainly: Coupled bacterial transcription/translation assay. Conditions: read-out: Trans/Trans IC50. Format: biochemical. As for the experimental part: The DNA template, pBestLuc™ (Promega), is a plasmid containing a reporter gene for firefly luciferase fused to a strong tac promoter and ribosome binding site. Messenger RNA from 1 μg pBestLuc is transcribed and translated in E. coli S30 bacterial extract in the presence or absence of test compound. Compounds are tested in a black 96 well microtiter plate with an assay volume of 35 μL. […] The transcription/translation reaction is incubated for 35 minutes at 37° C. followed by detection of functional luciferase with the addition of 30 μL LucLite™ (Packard). Light output is quantitated on a Packard TopCount.

The mark [4] stands for this setting: FTICR mass spectrometry, run at 100 nM RNA, Example 105.
[5] abbreviates: FTICR mass spectrometry, Example 105.

Where two headings read alike, the source gives them in different places.

A word on the Kd: it is the constant that tells how readily two partners part at equilibrium. Turning to `NC[C@@H]1O[C@H](O[C@H]2[C@@H](OCCO)[C@H](O[C@@H]3[C@@H](O)[C@H](N)C[C@H](N)[C@H]3O[C@H]3O[C@H](CO)[C@@H](O)[C@H](O)[C@H]3N)O[C@@H]2CO)[C@H](N)[C@@H](O)[C@@H]1O` [Compound 12a], the Kd in experiment [1] (setting [4]) was 900 nM; in experiment [2] (setting [5]) it was 7300 nM. Further, the “MIC E. Coli.” value in the experiment on E. Coli (Example 105) fell in the range of 12 to 25 µM. Also, in the experiment on S. Aureus (Example 105), the “MIC S. Aureus” value was in the range of 6 to 12 µM. The IC50 in experiment [3] (Example 105) stood at 100 nM.
With `NCC1OC(OC2C(CO)OC(OC3C(O)C(N)CC(N)C3OC3OC(CNN)C(O)C(O)C3N)C2O)C(N)C(O)C1O` (stereo not drawn) [Compound 15i], the Kd in experiment [1] (Example 108) came out at 600 nM; in experiment [2] (Example 108), 1700 nM. Besides, the “MIC E. Coli.” value against E. Coli (Example 108) is 12 to 25 µM. Further, the “MIC S. Aureus” value against S. Aureus (Example 108) is 3 to 6 µM. For the same compound, the IC50 in experiment [3] (Example 108) was determined as 200 nM.
Consider `NCC1OC(OC2C(CO)OC(OC3C(O)C(N)CC(N)C3OC3OC(CO)C(O)C(O)C3N)C2OCCNCCc2ccc(-c3ccccc3)cc2)C(N)C(O)C1O` (stereo not drawn) [Compound 9aa], for which the Kd was determined as 900 nM in experiment [1] (Example 106) and 3500 nM in experiment [2] (Example 106). In addition, the “MIC E. Coli.” value in the experiment with E. Coli (Example 106) fell in the range of 20 to 40 µM. In addition, the “MIC S. Aureus” value with S. Aureus (Example 106) was in the range of 5 to 10 µM. Further, the IC50 in experiment [3] (Example 106) was found to be 1500 nM.
As for `NCC1OC(OC2C(CO)OC(OC3C(O)C(N)CC(N)C3OC3OC(CO)C(O)C(O)C3N)C2OCCNc2ccccn2)C(N)C(O)C1O` (stereo not drawn) [Compound 9u], the figures for the equilibrium dissociation constant (Kd) in experiment [1] (setting [4]) and in experiment [2] (setting [5]) were 5000 nM and 22000 nM, respectively. Moreover, the “MIC E. Coli.” value with E. Coli (Example 105) lay within 12 to 25 µM. The “MIC S. Aureus” value against S. Aureus (Example 105) lay within 1 to 2 µM. The IC50 in experiment [3] (Example 105) is 400 nM.
As for `NCCCNCCOC1C(OC2C(O)C(N)CC(N)C2OC2OC(CO)C(O)C(O)C2N)OC(CO)C1O` (stereo not drawn) [Compound 30b], the Kd in experiment [1] (setting [4]) was determined as 9200 nM; in experiment [2] (setting [5]), 18000 nM. For the same compound, the “MIC E. Coli.” value with E. Coli (Example 105) was 6 to 12 µM. Further, the “MIC S. Aureus” value with S. Aureus (Example 105) was 6 to 12 µM. In addition, in experiment [3] (Example 105), the IC50 was determined as 100 nM.
Turning to `CC(=O)N(CCOC1C(OC2C(O)C(N)CC(N)C2OC2OC(CO)C(O)C(O)C2N)OC(CO)C1OC1OC(CN)C(O)C(O)C1N)CCc1ccccc1` (stereo not drawn) [Compound 11], the Kd is 1500 nM in experiment [1] (Example 106) and 6100 nM in experiment [2] (Example 106). Besides, the “MIC E. Coli.” value in the experiment with E. Coli (Example 106) was in the range of 10 to 20 µM. Further, the “MIC S. Aureus” value against S. Aureus (Example 106) is 1 to 3 µM. Further, the IC50 in experiment [3] (Example 106) was determined as 400 nM.
As for `NCC1OC(OC2C(CO)OC(OC3C(O)C(N)CC(N)C3OC3OC(CO)C(O)C(O)C3N)C2OCCNCC2CCCNC2)C(N)C(O)C1O` (stereo not drawn) [Compound 9k], the Kd worked out at 300 nM in experiment [1] (setting [4]) and 2600 nM in experiment [2] (setting [5]). Besides, the “MIC E. Coli.” value against E. Coli (Example 105) is 1.5-3^ uM. Moreover, in the experiment with S. Aureus (Example 105), the “MIC S. Aureus” value is 3 to 6 µM. The IC50 in experiment [3] (Example 105) was determined as 40 nM.
The corresponding values for `NCC1OC(OC2C(CO)OC(OC3C(O)C(N)CC(N)C3OC3OC(CO)C(O)C(O)C3N)C2OCCNCCCCc2ccccc2)C(N)C(O)C1O` (stereo not drawn) [Compound 9z] are 700 nM, 6400 nM, 3 to 5 µM, 0.6 to 1.2 µM and 100 nM.
On the same counts, the results for `CN(C)CCOC[C@H]1O[C@@H](O[C@@H]2[C@@H](O)[C@H](N)C[C@H](N)[C@H]2O[C@H]2O[C@H](CO)[C@@H](O)[C@H](O)[C@H]2N)[C@H](O)[C@@H]1O[C@H]1O[C@@H](CN)[C@@H](O)[C@H](O)[C@H]1N` [Compound 54, 5″-O-(2-N,N-dimethylaminoethyl) paromomycin] are 4100 nM, 68000 nM, 6 to 12 µM, 25 to 50 µM and 300 nM.
`NC[C@@H]1O[C@H](O[C@H]2[C@@H](O)[C@H](O[C@@H]3[C@@H](O)[C@H](N)C[C@H](N)[C@H]3O[C@H]3O[C@H](CN)[C@@H](O)[C@H](O)[C@H]3N)O[C@@H]2CO)[C@H](N)[C@@H](O)[C@@H]1O` [Neomycin B, reference compound]: the dissociation constant (Kd) in experiment [1] (Example 106) worked out at 40 nM; in experiment [2] (Example 106), 300 nM. Besides, the IC50 in experiment [3] (Example 106) amounted to 200 nM.
